Patent US9156790B2, “Anticancer P21-activated kinase inhibitors” (Ohio State Innovation Foundation, priority 2013, dated 2015)
Entries after “also recorded” stand apart in the source; their conditions may differ.

Assays:
[1] = molecular target: CaMKI (Homo sapiens, UniProt Q14012); assay: Kinase profiling panel: CaMKI; type: biochemical; conditions: 5 μM compound; average of triplicate
Method: (§1) To further probe the selectivity of the compounds 4 and 15, they were subjected for kinase profiling service for screening against a panel of other kinases selected based on the kinase tree at 5 μM concentration, at or above the IC50 for the two compounds versus PAK in both in vitro and cell-based assays. […] PAK1 was not available for testing using this system thus it was not possible to compare directly in this assay system.

[2] = molecular target: GSK3β (Homo sapiens, UniProt P49841); assay: Kinase profiling panel: GSK3β; type: biochemical; conditions: 5 μM compound; average of triplicate
Sequence of GSK3β (P49841 whole entry, species assumed): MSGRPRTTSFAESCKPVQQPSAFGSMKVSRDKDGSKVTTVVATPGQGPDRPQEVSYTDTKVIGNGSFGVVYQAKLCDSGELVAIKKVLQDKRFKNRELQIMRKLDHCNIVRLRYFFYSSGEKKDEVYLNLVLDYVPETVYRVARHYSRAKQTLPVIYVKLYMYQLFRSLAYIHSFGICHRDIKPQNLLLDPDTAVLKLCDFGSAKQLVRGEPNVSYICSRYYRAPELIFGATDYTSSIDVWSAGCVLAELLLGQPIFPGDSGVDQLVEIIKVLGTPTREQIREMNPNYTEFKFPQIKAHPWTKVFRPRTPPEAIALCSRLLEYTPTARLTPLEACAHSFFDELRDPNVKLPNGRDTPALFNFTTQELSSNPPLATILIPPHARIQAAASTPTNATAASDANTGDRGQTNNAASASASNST
Method: as §1

[3] = molecular target: IGF-1R, activated (Homo sapiens, UniProt P08069); assay: Kinase profiling panel: IGF-1R, activated; type: biochemical; conditions: 5 μM compound; average of triplicate
Sequence of IGF-1R, activated (P08069 31-1367): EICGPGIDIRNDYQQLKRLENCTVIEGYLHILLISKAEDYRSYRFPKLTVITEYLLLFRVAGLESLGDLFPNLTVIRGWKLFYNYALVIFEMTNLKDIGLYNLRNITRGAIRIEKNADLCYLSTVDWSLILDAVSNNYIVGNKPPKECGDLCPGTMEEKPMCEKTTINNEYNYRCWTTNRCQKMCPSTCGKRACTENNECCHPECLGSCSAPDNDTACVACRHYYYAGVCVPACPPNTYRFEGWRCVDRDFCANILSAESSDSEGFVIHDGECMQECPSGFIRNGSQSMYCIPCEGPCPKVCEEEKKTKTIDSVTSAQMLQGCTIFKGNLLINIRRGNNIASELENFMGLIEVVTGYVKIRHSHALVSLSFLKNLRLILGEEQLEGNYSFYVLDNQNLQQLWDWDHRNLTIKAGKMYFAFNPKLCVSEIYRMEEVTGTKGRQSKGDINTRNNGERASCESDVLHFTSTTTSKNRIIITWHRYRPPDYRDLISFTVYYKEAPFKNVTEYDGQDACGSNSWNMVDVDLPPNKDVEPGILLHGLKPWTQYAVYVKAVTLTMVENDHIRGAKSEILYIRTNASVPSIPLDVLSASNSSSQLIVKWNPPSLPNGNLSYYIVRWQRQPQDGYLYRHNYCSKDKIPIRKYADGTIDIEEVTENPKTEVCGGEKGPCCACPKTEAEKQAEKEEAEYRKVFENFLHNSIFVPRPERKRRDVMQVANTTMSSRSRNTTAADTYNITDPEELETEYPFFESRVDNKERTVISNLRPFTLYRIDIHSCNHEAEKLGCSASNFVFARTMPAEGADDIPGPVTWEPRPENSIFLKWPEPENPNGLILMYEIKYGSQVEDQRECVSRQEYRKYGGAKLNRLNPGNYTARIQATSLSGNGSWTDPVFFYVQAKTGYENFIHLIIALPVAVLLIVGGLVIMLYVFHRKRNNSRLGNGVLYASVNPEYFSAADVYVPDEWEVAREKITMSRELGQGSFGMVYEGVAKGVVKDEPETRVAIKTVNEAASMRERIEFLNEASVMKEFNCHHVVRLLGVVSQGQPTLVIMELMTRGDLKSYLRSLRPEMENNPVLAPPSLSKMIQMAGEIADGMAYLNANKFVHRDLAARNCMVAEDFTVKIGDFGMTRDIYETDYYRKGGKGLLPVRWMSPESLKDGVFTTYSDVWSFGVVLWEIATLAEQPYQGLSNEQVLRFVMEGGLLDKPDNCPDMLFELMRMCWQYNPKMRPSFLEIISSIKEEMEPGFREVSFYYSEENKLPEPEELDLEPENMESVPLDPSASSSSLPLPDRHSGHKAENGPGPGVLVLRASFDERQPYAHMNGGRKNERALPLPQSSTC
Method: as §1

[4] = molecular target: Met (Homo sapiens, UniProt P08581); assay: Kinase profiling panel: Met; type: biochemical; conditions: 5 μM compound; average of triplicate
Method: as §1

[5] = molecular target: PAK3 (Homo sapiens, UniProt O75914); assay: Kinase profiling panel: PAK3; type: biochemical; conditions: 5 μM compound; average of triplicate
Sequence of PAK3 (O75914 whole entry, species assumed): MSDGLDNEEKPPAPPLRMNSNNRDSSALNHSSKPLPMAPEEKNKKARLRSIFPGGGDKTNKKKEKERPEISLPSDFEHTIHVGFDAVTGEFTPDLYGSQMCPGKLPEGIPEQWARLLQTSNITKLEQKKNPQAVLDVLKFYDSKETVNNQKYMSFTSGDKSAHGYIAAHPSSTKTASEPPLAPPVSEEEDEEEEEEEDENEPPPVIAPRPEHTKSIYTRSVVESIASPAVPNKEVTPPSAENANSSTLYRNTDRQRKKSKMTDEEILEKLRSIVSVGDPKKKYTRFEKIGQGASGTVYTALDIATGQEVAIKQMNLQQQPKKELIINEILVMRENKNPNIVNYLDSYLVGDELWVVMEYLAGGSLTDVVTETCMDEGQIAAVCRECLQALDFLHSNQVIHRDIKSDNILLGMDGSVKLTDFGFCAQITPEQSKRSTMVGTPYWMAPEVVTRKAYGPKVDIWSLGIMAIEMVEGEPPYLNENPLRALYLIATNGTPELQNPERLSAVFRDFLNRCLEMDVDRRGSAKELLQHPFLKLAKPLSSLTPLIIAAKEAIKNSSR
Method: as §1

[6] = molecular target: PAK6 (Homo sapiens, UniProt Q9NQU5); assay: Kinase profiling panel: PAK6; type: biochemical; conditions: 5 μM compound; average of triplicate
Sequence of PAK6 (Q9NQU5 whole entry, species assumed): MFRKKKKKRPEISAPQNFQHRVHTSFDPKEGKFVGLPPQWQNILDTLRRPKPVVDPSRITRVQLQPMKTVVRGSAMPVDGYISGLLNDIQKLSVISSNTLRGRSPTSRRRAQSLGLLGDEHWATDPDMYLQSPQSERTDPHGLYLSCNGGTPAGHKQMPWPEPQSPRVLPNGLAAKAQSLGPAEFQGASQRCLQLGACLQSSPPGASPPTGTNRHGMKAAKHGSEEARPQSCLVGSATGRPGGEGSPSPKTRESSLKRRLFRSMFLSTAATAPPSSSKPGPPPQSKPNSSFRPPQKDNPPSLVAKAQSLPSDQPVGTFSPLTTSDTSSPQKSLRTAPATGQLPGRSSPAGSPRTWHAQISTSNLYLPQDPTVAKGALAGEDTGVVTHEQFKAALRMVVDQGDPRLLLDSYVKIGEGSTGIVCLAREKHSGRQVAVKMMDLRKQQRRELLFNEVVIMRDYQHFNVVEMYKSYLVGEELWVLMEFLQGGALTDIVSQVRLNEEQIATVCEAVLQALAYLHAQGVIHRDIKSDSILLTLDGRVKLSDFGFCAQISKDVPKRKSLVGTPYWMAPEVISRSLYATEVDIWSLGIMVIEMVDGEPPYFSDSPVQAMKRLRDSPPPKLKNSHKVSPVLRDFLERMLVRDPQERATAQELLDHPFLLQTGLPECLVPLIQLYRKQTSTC
Method: as §1

[7] = molecular target: PKBγ (Homo sapiens, UniProt Q9Y243); assay: Kinase profiling panel: PKBγ; type: biochemical; conditions: 5 μM compound; for remaining activity at 5 µM: average of triplicate, read-out: % activity vs. DMSO, PKBγ
Sequence of PKBγ (Q9Y243 whole entry, species assumed): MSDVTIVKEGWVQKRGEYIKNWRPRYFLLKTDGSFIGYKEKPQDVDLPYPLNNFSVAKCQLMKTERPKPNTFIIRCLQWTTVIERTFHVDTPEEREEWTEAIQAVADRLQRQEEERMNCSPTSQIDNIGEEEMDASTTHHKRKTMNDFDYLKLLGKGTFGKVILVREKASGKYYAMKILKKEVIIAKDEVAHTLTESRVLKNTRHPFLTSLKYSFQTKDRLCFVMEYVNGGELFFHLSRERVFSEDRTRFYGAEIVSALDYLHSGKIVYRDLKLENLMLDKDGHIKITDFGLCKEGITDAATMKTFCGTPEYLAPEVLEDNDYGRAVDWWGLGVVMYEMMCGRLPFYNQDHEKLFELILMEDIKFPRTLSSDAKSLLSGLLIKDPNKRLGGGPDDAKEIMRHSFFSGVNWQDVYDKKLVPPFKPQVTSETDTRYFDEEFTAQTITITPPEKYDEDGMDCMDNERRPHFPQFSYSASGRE
Method: as §1

[8] = molecular target: PKCδ (Homo sapiens, UniProt Q05655); assay: Kinase profiling panel: PKCδ; type: biochemical; conditions: 5 μM compound; average of triplicate
Sequence of PKCδ (Q05655 whole entry): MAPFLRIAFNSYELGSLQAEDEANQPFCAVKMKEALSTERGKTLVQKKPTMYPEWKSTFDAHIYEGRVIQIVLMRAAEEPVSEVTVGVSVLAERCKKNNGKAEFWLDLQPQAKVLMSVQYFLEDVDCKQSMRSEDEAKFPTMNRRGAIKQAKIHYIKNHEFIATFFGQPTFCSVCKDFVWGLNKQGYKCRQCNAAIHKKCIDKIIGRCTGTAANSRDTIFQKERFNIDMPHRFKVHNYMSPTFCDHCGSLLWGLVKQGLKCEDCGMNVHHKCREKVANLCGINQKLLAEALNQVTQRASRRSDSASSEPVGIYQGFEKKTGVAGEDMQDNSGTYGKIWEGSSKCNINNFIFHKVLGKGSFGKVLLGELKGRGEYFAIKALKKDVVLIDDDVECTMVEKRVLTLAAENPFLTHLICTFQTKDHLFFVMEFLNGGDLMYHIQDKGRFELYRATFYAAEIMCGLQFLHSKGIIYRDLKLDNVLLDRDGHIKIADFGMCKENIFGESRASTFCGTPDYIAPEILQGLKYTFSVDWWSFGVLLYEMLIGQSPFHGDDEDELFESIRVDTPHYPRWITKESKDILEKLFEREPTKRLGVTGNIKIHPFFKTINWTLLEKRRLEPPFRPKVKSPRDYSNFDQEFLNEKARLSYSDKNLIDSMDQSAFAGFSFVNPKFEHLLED
Method: as §1

[9] = molecular target: T1, SGK (Homo sapiens, UniProt O00141); assay: Kinase profiling panel: SGK; type: biochemical; conditions: 5 μM compound; for % activity vs. DMSO, SGK: average of triplicate
T1 sequence (O00141 1-431): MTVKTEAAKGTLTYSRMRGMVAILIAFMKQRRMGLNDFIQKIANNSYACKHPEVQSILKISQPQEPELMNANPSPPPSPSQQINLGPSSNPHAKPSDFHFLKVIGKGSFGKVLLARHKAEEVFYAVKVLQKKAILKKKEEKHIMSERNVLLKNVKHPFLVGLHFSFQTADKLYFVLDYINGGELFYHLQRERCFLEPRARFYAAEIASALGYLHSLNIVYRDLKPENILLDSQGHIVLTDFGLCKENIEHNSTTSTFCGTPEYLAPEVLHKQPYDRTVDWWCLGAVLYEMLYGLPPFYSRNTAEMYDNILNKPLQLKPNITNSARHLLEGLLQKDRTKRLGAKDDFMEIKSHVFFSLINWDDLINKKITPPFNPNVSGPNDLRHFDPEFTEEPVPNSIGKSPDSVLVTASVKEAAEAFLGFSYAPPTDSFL
Method: as §1

[10] = molecular target: Src(T341M) (Homo sapiens, UniProt P12931, T341M); assay: Kinase profiling panel: Src(T341M); type: biochemical; conditions: 5 μM compound; average of triplicate
Method: as §1

[11] = test system: ERK phosphorylation; assay: Western blot, ERK phosphorylation in thyroid cancer cells; type: cell-based, Human; conditions: 6 hours
Method: (§2) Protein isolation and Western blot were performed as previously described. Ringel et al., Cancer research 61:6105-6111 (2001). 25 μg of total cell lysates were loaded into 4-12% SDS-PAGE, electrophoresed, and transferred to nitrocellulose membranes for immunoblotting. Primary antibodies against Akt (#9272), phospho-Akt (Thr308) (#2965), p44/42 MAPK (Erk1/2) (#9107), phospho-p44/42 MAPK (Erk1/2) (Thr202/Tyr204) (#4377) and GAPDH (#2118) were obtained from Cell Signaling Technology (Danvers, Mass., USA). Antibody against Vimentin (V6630) and phospho-Ser55 Vimentin were from Sigma-Aldrich, Inc. (St. Louis, Mo.) and MBL Co. (Nagoya, Japan), respectively. Antibodies against total and phosphorylated S6 were from Cell Signaling Technology®.
(§3) The dose-dependency of compounds 4 and 15 was next assessed (FIG. 4). […] Due to the important role that ERK activation plays in thyroid cancer, and its signaling activation by thyroid oncogenes, the effects of the compounds on ERK phosphorylation was also assessed.

[12] = test system: S6 phosphorylation; assay: Western blot, S6 phosphorylation in thyroid cancer cells; type: cell-based, Human; conditions: for S6 phosphorylation, BCPAP and TPC1 cells: BCPAP and TPC1 cells (FIG. 4B)
Method: as §2, §3

[13] = test system: TPC1 cells; assay: Boyden chamber migration assay, TPC1; type: cell-based, Human; conditions: 5 μM, 24 hours, P<0.05 versus DMSO
Method: Cells were grown in media containing 10% FBS. After 24 hours, the medium was aspirated, and media containing 1% FBS was added for 24 hours. The cells were trypsinized for 2 to 5 minutes, washed, and resuspended in media containing 1% FBS. The cell concentration was calculated by hemocytometer. Four hundred μl 1% FBS medium was added into 24-well plates, and a Boyden chamber (8 μm pore) was inserted into each well. Cells were added to each insert, and were allowed to attach in an incubator at 37° C. at 5% CO2 for 2 hours. The cells were then exposed to various concentrations of drugs or control diluent for 3 hours. The inserts were switched to a new well containing media containing 10% FBS, and the chamber was incubated for 12 or 24 hours depending on the migration rate of the cell line. The cells on and under the Boyden chamber membrane were fixed with 3.7% formaldehyde containing 0.05% crystal violet for 15 min after washing cells with PBS. The chambers were washed with distilled water. […] The Q-tips containing the scraped cells and the Boyden chamber containing the non-migrated cells were separately incubated in 80% methanol, shaken at 500 g for 30 minutes, and the extracted dye was measured at 570 nm. Migration was quantified as the ratio of the migrated cells over the total cells (non-migrated plus […]). […]

Sequence of CaMKI (Q14012 whole entry, species assumed): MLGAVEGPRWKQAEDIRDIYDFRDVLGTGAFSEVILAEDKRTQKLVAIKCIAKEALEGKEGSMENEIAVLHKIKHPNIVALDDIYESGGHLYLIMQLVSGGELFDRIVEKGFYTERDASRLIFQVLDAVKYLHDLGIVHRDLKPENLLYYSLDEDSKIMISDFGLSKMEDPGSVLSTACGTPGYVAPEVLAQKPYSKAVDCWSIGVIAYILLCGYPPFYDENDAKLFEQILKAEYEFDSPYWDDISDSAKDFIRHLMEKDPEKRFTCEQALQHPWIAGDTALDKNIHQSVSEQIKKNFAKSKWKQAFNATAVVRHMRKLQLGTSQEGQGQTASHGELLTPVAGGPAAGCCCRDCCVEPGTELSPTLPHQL

Row | Structure (SMILES) | % activity vs. DMSO, CaMKI [1] [%] | % activity vs. DMSO, GSK3β [2] [%] | % activity vs. DMSO, IGF-1R, activated [3] [%] | % activity vs. DMSO, Met [4] [%] | % activity vs. DMSO, PAK3 [5] [%] | % activity vs. DMSO, PAK6 [6] [%] | inhibition at 5 µM [7] [%] | remaining activity at 5 µM [7] [%] | % activity vs. DMSO, PKCδ [8] [%] | inhibition at 5 µM [9] [%] | % activity vs. DMSO, SGK [9] [%] | % activity vs. DMSO, Src(T341M) [10] [%] | ERK phosphorylation, all three cell lines ([11]; dose-response, BCPAP, FTC133 and TPC1 cells) | S6 phosphorylation, BCPAP and TPC1 cells [12] | Migration of TPC1 cells [13] | ERK phosphorylation, BCPAP cells ([11]; 2.5 μM, BCPAP cells (BRAF V600E)) | ERK phosphorylation, other two cell lines ([11]; FTC133 and TPC1 cells) | S6 phosphorylation, FTC133 cells ([12]; FTC133 cells (FIG. 4B))
1 | NCCC(=O)Nc1ccc(-n2nc(C(F)(F)F)cc2-c2ccc3ccc4ccccc4c3c2)cc1 [Compound 4, 3-amino-N-(4-(5-(phenanthren-3-yl)-3-(trifluoromethyl)-1H-pyrazol-1-yl)phenyl)-propanamide] | 65 | 170 | 97 | 89 | 211 | 81 | > 50 | 33 | 85 | > 50 | 27 | 105 | no demonstrable effects on ERK phosphorylation | inhibited this phosphorylation | decreased cell motility; also recorded: inhibited migration | – | – | –
2 | CC(C)NC(=O)c1cc(-c2ccc3ccc4ccccc4c3c2)n(-c2ccc(NC(=O)CN)cc2)n1 [Compound 15, 1-(4-(2-Aminoacetamido)phenyl)-N-isopropyl-5-(phenanthren-3-yl)-1H-pyrazole-3-carboxamide] | 68 | 137 | 83 | 77 | 99 | 101 | – | 56 | 110 | – | 64 | 94 | – | inhibited 56 phosphorylation | decreased cell motility; also recorded: inhibited migration | inhibited ERK phosphorylation | at higher concentrations | inhibited 56 phosphorylation
